Consider 14 compounds from patent US11447465B2, “Pharmaceutical compounds for treatment of medical disorders” (Achillion Pharmaceuticals, Inc., priority 2017, dated 2022).

This experiment concerns the target Human Factor D (Homo sapiens (Human), UniProt P00746). The experiment is described as follows: Human Factor D Assay. It counts as biochemical. The conditions noted are these: Table 7; read-out: IC5 (Stars). A digest of the protocol: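 Serum-purified human factor D (80 nM final) preincubated with compound 5 min at room temperature in 50 mM Tris, 1 M NaCl, pH 7.5. Z-L-Lys-SBzl and DTNB added at 100 μM each; A405 followed every 30 s for 30 min. IC50 by nonlinear regression of rates.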

Human Factor D, sequence (P00746 26-253): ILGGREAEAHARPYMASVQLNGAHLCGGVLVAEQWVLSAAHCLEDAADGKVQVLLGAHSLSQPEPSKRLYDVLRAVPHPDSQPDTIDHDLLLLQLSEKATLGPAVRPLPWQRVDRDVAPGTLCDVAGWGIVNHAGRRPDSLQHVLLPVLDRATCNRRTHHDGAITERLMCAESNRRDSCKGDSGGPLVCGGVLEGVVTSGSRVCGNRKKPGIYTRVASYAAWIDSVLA

As to `COC(=O)c1cc2c(cc1-c1cnc(C)nc1)c(C(C)=O)nn2CC(=O)N1[C@H](C(=O)Nc2nc(Br)ccc2C)C[C@@]2(C)C[C@@H]12` [Compound T-129, methyl 3-acetyl-1-(2-((1R,3S,5R)-3-((6-bromo-3-methylpyridin-2-yl)carbamoyl)-5-methyl-2-azabicyclo[3.1.0]hexan-2-yl)-2-oxoethyl)-5-(2-methylpyrimidin-5-yl)-1H-indazole-6-carboxylate], the IC50 is under 1000 nM.

As for `CC(=O)c1nn(CC(=O)N2C[C@H](F)C[C@H]2C(=O)Nc2nc(Br)ccc2C)c2cc(OCP(=O)(O)O)ccc12` [Compound T-130, (((3-acetyl-1-(2-((2S,4R)-2-((6-bromo-3-methylpyridin-2-yl)carbamoyl)-4-fluoropyrrolidin-1-yl)-2-oxoethyl)-1H-indazol-6-yl)oxy)methyl)phosphonic acid], the IC50 was under 1000 nM.

`CC(=O)c1nn(CC(=O)N2C[C@H](F)C[C@H]2C(=O)NCc2cccc(Cl)c2F)c2cc(OCP(=O)(O)O)ccc12` [Compound T-131, (((3-acetyl-1-(2-((2S,4R)-2-((3-chloro-2-fluorobenzyl)carbamoyl)-4-fluoropyrrolidin-1-yl)-2-oxoethyl)-1H-indazol-6-yl)oxy)methyl)phosphonic acid]: the IC50 is under 1000 nM.

For `CC(=O)c1nn(CC(=O)N2[C@H](C(=O)Nc3nc(Br)ccc3C)C[C@@]3(C)C[C@@H]23)c2cc(OCP(=O)(O)O)ccc12` [Compound T-132, (((3-acetyl-1-(2-((1R,3S,5R)-3-((6-bromo-3-methylpyridin-2-yl)carbamoyl)-5-methyl-2-azabicyclo[3.1.0]hexan-2-yl)-2-oxoethyl)-1H-indazol-6-yl)oxy)methyl)phosphonic acid], the IC50 is under 1000 nM.

Turning to `CC(=O)c1nn(CC(=O)N2C(C(=O)Nc3nc(Br)ccc3C)C[C@@]3(Cn4cc(C5CC5)nn4)C[C@@H]23)c2cnccc12` (stereo partly drawn) [Compound T-139, (1R,3S,5R)-2-(2-(3-acetyl-1H-pyrazolo[3,4-c]pyridin-1-yl)acetyl)-N-(6-bromo-3-methylpyridin-2-yl)-5-((4-cyclopropyl-1H-1,2,3-triazol-1-yl)methyl)-2-azabicyclo[3.1.0]hexane-3-carboxamide], the IC50 is under 1000 nM.

For the compound `COc1cc(CC(=O)N2[C@H](C(=O)Nc3nc(Br)ccc3C)C[C@@]3(C)C[C@@H]23)cc(-c2cnc(OC)nc2)c1` [Compound T-153, (1R,3S,5R)-N-(6-bromo-3-methylpyridin-2-yl)-2-(2-(3-methoxy-5-(2-methoxypyrimidin-5-yl)phenyl)acetyl)-5-methyl-2-azabicyclo[3.1.0]hexane-3-carboxamide], the IC50 was 1000 to 10000 nM.

In the case of `Cc1ccc(Br)nc1NC(=O)[C@@H]1C[C@@]2(C)C[C@H]2N1C(=O)Cc1ccc2[nH]nc(Cl)c2c1` [Compound T-155, (1R,3S,5R)-N-(6-bromo-3-methylpyridin-2-yl)-2-(2-(3-chloro-1H-indazol-5-yl)acetyl)-5-methyl-2-azabicyclo[3.1.0]hexane-3-carboxamide], the IC50 fell in the range of 1000 to 10000 nM.

As to `Cc1ccc(Br)nc1NC(=O)[C@@H]1C[C@@]2(C)C[C@H]2N1C(=O)Cc1ccc2[nH]nc(C(=O)O)c2c1` [Compound T-158, 5-(2-((1R,3S,5R)-3-((6-bromo-3-methylpyridin-2-yl)carbamoyl)-5-methyl-2-azabicyclo[3.1.0]hexan-2-yl)-2-oxoethyl)-1H-indazole-3-carboxylic acid], the IC50 is 1000 to 10000 nM.

Regarding `Cc1ncc(-c2cc(CC(=O)N3C[C@H](F)C[C@H]3C(=O)Nc3cccc(Br)n3)cc(C(N)=O)c2)cn1` [Compound T-167, (2S,4R)-N-(6-bromopyridin-2-yl)-1-(2-(3-carbamoyl-5-(2-methylpyrimidin-5-yl)phenyl)acetyl)-4-fluoropyrrolidine-2-carboxamide], the IC50 was in the range of 1000 to 10000 nM.

On to `Cc1ncc(-c2cc(CC(=O)N3[C@H](C(=O)Nc4nc(Br)ccc4C)C[C@@]4(C)C[C@@H]34)cc(C(N)=O)c2)cn1` [Compound T-169, (1R,3S,5R)-N-(6-bromo-3-methylpyridin-2-yl)-2-(2-(3-carbamoyl-5-(2-methylpyrimidin-5-yl)phenyl)acetyl)-5-methyl-2-azabicyclo[3.1.0]hexane-3-carboxamide], for which the IC50 was in the range of 1000 to 10000 nM.

Consider `Cc1ncc(-c2cc(C#N)cc(CC(=O)N3C[C@H](F)C[C@H]3C(=O)Nc3cccc(Br)n3)c2)cn1` [Compound T-170, (2S,4R)-N-(6-bromopyridin-2-yl)-1-(2-(3-cyano-5-(2-methylpyrimidin-5-yl)phenyl)acetyl)-4-fluoropyrrolidine-2-carboxamide], for which the IC50 is 1000 to 10000 nM.

For the compound `Cc1ncc(-c2cc(C#N)cc(CC(=O)N3[C@H](C(=O)Nc4nc(Br)ccc4C)C[C@@]4(C)C[C@@H]34)c2)cn1` [Compound T-171, (1R,3S,5R)-N-(6-bromo-3-methylpyridin-2-yl)-2-(2-(3-cyano-5-(2-methylpyrimidin-5-yl)phenyl)acetyl)-5-methyl-2-azabicyclo[3.1.0]hexane-3-carboxamide], the IC50 lay within 1000 to 10000 nM.

In the case of `Cc1ncc(-c2cc(CC(=O)N3C[C@H](F)C[C@H]3C(=O)Nc3cccc(-c4ccccc4Cl)c3F)cc(OCC(=O)O)c2)cn1` [Compound T-176, 2-(3-(2-((2S,4R)-2-((2′-chloro-2-fluoro-[1,1′-biphenyl]-3-yl)carbamoyl)-4-fluoropyrrolidin-1-yl)-2-oxoethyl)-5-(2-methylpyrimidin-5-yl)phenoxy)acetic acid], the IC50 was 1000 to 10000 nM.

As for `Cc1ccc(Br)nc1NC(=O)[C@@H]1C[C@@]2(CNC(=O)COCCOCCNC(=O)COCCOCCNC(=O)CC[C@H](NC(=O)CCCCCCCCCCCCCCCCC(=O)O)C(=O)O)C[C@H]2N1C(=O)Cn1nc(C(N)=O)c2cc(C#Cc3ncc(F)cn3)ccc21` [Compound T-177, (S)-1-((1R,3S,5R)-3-((6-bromo-3-methylpyridin-2-yl)carbamoyl)-2-(2-(3-carbamoyl-5-((5-fluoropyrimidin-2-yl)ethynyl)-1H-indazol-1-yl)acetyl)-2-azabicyclo[3.1.0]hexan-5-yl)-24-carboxy-3,12,21,26-tetraoxo-5,8,14,17-tetraoxa-2,11,20,25-tetraazatritetracontan-43-oic acid], the IC50 is under 1000 nM.
